In patent US10787432B2, “N-[(pyridyloxy)propanyl]benzamides” (Boehringer Ingelheim International GmbH, priority 2016, dated 2020):
Read-outs that look alike come from different tables or passages of the source.

Assays:
[1] = Assay C: Metabolic stability in human liver microsomes (Human MST); type: in vitro ADME; settings: pooled human liver microsomes, pH 7.6; human liver microsomes 1 mg/mL, compound 1 μM, 37° C., NADPH; read-out: Human MST t1/2
Protocol: C. Assessment of Metabolic Stability in Human Liver Microsomes (Human MST)
The metabolic stability of the compounds according to the invention may be investigated as follows:
The metabolic degradation of the test compound is assayed at 37° C. with pooled human liver microsomes. The final incubation volume of 100 μL per time point contains TRIS buffer pH 7.6 at room temperature (0.1 M), MgCl2 (5 mM), microsomal protein (1 mg/mL) and the test compound at a final concentration of 1 μM. Following a short pre-incubation period at 37° C., the reactions are initiated by addition of beta-nicotinamide adenine dinucleotide phosphate, reduced form (NADPH, 1 mM), and terminated by transferring an aliquot into solvent after different time points. After centrifugation (10000 g, 5 min), an aliquot of the supernatant is assayed by LC-MS/MS for the amount of parent compound. The half-life (t1/2) is determined by the slope of the semi-logarithmic plot of the concentration-time profile.

human Orexin 1 receptor = molecular target: T1, human Orexin 1 receptor (Homo sapiens, UniProt O43613); assay: Assay A: In vitro testing of OX1R potency: OX1R IP1 (HTRF, CHO-K1/hOX1 cells, Orexin A as agonist); type: cell-based; settings: for Kb: read-out: OX1R Kb (Orexin A concentration used)
T1 construct: stably expressing the full-length human Orexin 1 receptor; expressed in transfected cells; host or cells: CHO-K1 (CHO-K1/hOX1), co-expressing aequorin
T1 sequence (O43613 1-425): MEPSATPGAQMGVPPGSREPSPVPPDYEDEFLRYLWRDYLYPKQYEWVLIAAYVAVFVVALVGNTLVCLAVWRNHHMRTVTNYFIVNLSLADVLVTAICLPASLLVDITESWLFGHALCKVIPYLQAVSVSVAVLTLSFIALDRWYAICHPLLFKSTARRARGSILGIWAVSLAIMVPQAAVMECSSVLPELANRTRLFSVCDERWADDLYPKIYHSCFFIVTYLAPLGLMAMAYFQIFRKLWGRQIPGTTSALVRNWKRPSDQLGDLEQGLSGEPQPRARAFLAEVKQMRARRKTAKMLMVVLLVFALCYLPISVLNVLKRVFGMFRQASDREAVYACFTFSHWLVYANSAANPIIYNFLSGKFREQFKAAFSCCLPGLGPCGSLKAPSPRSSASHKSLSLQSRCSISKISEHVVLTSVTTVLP

human orexin 2 receptor = molecular target: T2, human orexin 2 receptor (Homo sapiens, UniProt O43614); assay: Assay B: In vitro testing of OX2R potency: OX2R IP1 (HTRF, CHO-K1/hOX2 cells, Orexin A as agonist); type: cell-based; settings: Orexin A 0.5 nM
T2 construct: stably expressing the full-length human orexin 2 receptor; expressed in transfected cells; host or cells: CHO-K1 (CHO-K1/hOX2), co-expressing aequorin
T2 sequence (O43614 1-444): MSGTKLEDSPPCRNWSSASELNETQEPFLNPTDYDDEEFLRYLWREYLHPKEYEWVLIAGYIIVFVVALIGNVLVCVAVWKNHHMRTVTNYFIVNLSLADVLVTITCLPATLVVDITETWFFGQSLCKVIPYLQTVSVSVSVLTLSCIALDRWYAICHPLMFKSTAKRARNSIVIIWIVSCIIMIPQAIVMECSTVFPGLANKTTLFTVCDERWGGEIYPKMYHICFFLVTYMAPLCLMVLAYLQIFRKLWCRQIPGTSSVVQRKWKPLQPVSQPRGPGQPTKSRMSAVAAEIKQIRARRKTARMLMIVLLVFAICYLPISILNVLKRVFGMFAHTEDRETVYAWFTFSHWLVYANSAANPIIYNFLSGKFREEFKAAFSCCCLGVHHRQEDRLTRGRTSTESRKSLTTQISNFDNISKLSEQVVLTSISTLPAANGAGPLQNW
Excerpt: Activation of the orexin receptors expressed in cell lines results in an increase in intracellular IP3 concentration. IP1, a downstream metabolite of IP3, accumulates in cells following receptor activation and is stable in the presence of LiCl. Using Homogeneous Time-Resolved Fluorescence technology with Lumi4-Tb cryptate (commercially available from Cisbio Bioassay.) and a suitable fluorescence plate reader. […] Chem. Genomics 2009, 3, 22-32. This technique is used to characterize pharmacological modification of the orexin receptors.
B. In Vitro Testing of OX2R Potency: OX2R IP1
IP1 measurements are performed in CHO-K1 cells stably expressing the full-length human orexin 2 receptor and the aequorin photoprotein. Cells are cultivated in Ham's nutrient mixture F12 medium with 10% fetal calf serum, in a 37° C., 95% humidity and 5% CO2 incubator. The CHO-K1/hOX2 cell mass is expanded to larger cell numbers. The cells are obtained as frozen cells in cryo-vials and stored until use at −150° C. The viability of the cells after thawing is >90%. In preparation for the assay, 24 hours before the assay, the cells are thawed at 37° C. and immediately diluted with cell culture medium. After centrifugation, the cell pellet is resuspended in medium and then distributed into the assay plates with a density of 5000 cells/25 μL per well. The plates are incubated for one hour at room temperature to reduce edge effects before they are incubated for 24 hours at 37° C./5% CO2. Compounds are prepared by a 8-point serial dilution in DMSO and a final dilution step into assay buffer (HBSS with 20 mM HEPES, 0.1% BSA and 50 mM LiCl, pH 7.4) to ensure a final DMSO concentration of 1% in the assay.
On the day of the assay, cells in the plate are washed twice with 60 μL assay buffer (20 μL buffer remained in the wells after washing), followed by adding 5 μL per well of compounds diluted in assay buffer. After 15 minutes of incubation at room temperature 5 μL per well of Orexin A peptide (final concentration: 0.5 nM) dissolved in assay buffer is added to the assay plate. The assay plate is incubated for 60 minutes at 37° C. Then 5 μL per well of Anti-IP1-Cryptate Tb solution and 5 μL per well of IP1-d2 dilution are added to all well of the plate and the plate is incubated for a further 60 minutes light protected at room temperature. The emission at 615 nm and 665 nm (Excitation wavelength: 320 nm) are measured using an EnVision reader (PerkinElmer). The ratio between the emission at 665 nm and 615 is calculated by the reader.
8-point four parametric non-linear curve fitting and determination of IC50 values and Hill slopes is performed using a regular analysis software e.g. AssayExplorer (Accelrys). In order to establish an agonist concentration independent parameter, Kb values are calculated using the following equation: IC50/((2+(A/EC50)n)^1/n−1) (with A=concentration agonist, EC50=EC50 agonist, n=Hill slope agonist) (see P. Leff, I. G. Dougall, Trends Pharmacol. Sci. 1993, 14(4), 110-112).
Kb values from Assay A (OX1R) and Assay B (OX2R) can then provide a selectivity ratio which is independent of the agonist (Orexin A) concentration.

| SMILES | half-life at 1 μM [1] [min] | OX2R Kb/OX1R Kb (human Orexin 1 receptor; OX1R Kb at 50 nM Orexin A) | Kb (human Orexin 1 receptor; Orexin A 50 nM) [nM] | Kb (human orexin 2 receptor) [nM] | OX2R Kb/OX1R Kb (human Orexin 1 receptor; OX1R Kb at 0.5 nM Orexin A) | Kb (human Orexin 1 receptor; Orexin A 0.5 nM) [nM] |
| --- | --- | --- | --- | --- | --- | --- |
| CCN(C(=O)c1cc(F)ccc1-n1nccn1)[C@@H](C)COc1ccc(C(F)(F)F)cn1 [Example 3] | 62 | 157 | 0.28 | 44 | – | – |
| CCN(C(=O)c1ccc(OC)cc1-c1ncccn1)[C@@H](C)COc1ccc(C(F)(F)F)cn1 [Example 118] | 15 | 2875 | 0.032 | 92 | – | – |
| CCN(C(=O)c1c(F)cccc1-c1ncccn1)[C@@H](C)COc1ccc(C(F)(F)F)cn1 [Example 116] | 33 | 205 | 0.22 | 45 | 132 | 0.34 |
| CCN(C(=O)c1ccc(OC)cc1-n1nccn1)[C@@H](C)COc1ncc(C(F)(F)F)cc1F [Example 131] | 11 | 900 | 0.5 | 450 | 506 | 0.89 |
| CCN(C(=O)c1cc(C#N)ccc1-n1nccn1)[C@@H](C)COc1ccc(C(F)(F)F)cn1 [Example 95] | > 130 | 74 | 0.5 | 37 | 71 | 0.52 |
| CCN(C(=O)c1cccc(C)c1-c1nnc(C)o1)[C@@H](C)COc1ccc(C(F)(F)F)cn1 [Example 20] | 20 | 292 | 0.12 | 35 | – | – |
| CCN(C(=O)c1cc(F)c(F)cc1-n1nccn1)[C@@H](C)COc1ccc(Cl)cn1 [Example 30] | 52 | – | – | 160 | 70 | 2.3 |
| CCN(C(=O)c1ccc(Cl)cc1-n1nccn1)[C@@H](C)COc1ccc(C(F)(F)F)cn1 [Example 26] | 15 | 400 | 0.055 | 22 | – | – |
| CCN(C(=O)c1cc(F)cc(F)c1-n1nccn1)[C@@H](C)COc1ccc(C(F)(F)F)cn1 [Example 13] | 49 | 511 | 0.18 | 92 | – | – |
| CCN(C(=O)c1ccccc1-c1cnn(C)c1)[C@@H](C)COc1ccc(C(F)(F)F)cn1 [Example 93] | 18 | 99 | 0.75 | 74 | – | – |
| CCN(C(=O)c1ccccc1-c1cnc(C)nc1)[C@@H](C)COc1ccc(C(F)(F)F)cn1 [Example 85] | 17 | – | – | 583 | 68 | 8.6 |
| CCN(C(=O)c1ccccc1-c1cnc(OC)nc1)[C@@H](C)COc1ccc(C(F)(F)F)cn1 [Example 79] | 12 | 58 | 1.6 | 92 | 66 | 1.4 |
| CCN(C(=O)c1cc(F)ccc1-c1ncccn1)[C@@H](C)COc1ccc(Br)cn1 [Example 120] | 76 | 358 | 0.12 | 43 | 165 | 0.26 |
| CCN(C(=O)c1ccc(C#N)cc1-n1nccn1)[C@@H](C)COc1ncc(C(F)(F)F)cc1F [Example 69] | 43 | – | – | 4340 | 136 | 32 |
| CCN(C(=O)c1cccc(C)c1-c1nnc(C)o1)[C@@H](C)COc1ncc(C(F)(F)F)cc1F [Example 64] | 15 | 705 | 0.22 | 155 | – | – |
| CCN(C(=O)c1ccccc1-c1nnc(C)o1)[C@@H](C)COc1ncc(C(F)(F)F)cc1F [Example 68] | 53 | – | – | 1000 | 527 | 1.9 |
| CCN(C(=O)c1c(-n2nccn2)ccc(C)c1F)[C@@H](C)COc1ncc(C(F)(F)F)cc1F [Example 127] | 15 | 377 | 0.13 | 49 | – | – |
| CCN(C(=O)c1cc(OC)ccc1-n1nccn1)[C@@H](C)COc1ccc(Cl)cn1 [Example 33] | 20 | 236 | 0.14 | 33 | – | – |
| CC[C@@H](CNc1ccc(C(F)(F)F)cn1)N(C)C(=O)c1cc(Cl)ccc1-n1nccn1 [Ex 42 in WO2016/034882, reference compound] | 7 | – | – | 229 | – | – |
| CCN(C(=O)c1ccccc1-c1ccn(C)c(=O)c1)[C@@H](C)COc1ccc(C(F)(F)F)cn1 [Example 81] | 39 | – | – | 1670 | 575 | 2.9 |
| CCN(C(=O)c1ccccc1-n1nccn1)[C@@H](C)COc1ncc(C(F)(F)F)cc1F [Example 47] | 21 | 272 | 0.32 | 87 | 130 | 0.67 |
| CCN(C(=O)c1cc(F)cc(F)c1-n1nccn1)[C@@H](C)COc1ncc(C(F)(F)F)cc1F [Example 54] | 87 | 415 | 0.66 | 274 | 277 | 0.99 |
| CC[C@@H](CNc1ccc(Cl)cn1)N(C)C(=O)c1cc(C)ccc1-n1nccn1 [Ex 1 in WO2016/034882, reference compound] | 5 | – | – | 36 | – | – |
